How the values were obtained:
[1] = Stability of PAA in compositions and in presence of chelators (PAA test strips); settings: for PAA present immediately after preparation of the solution / time after which no PAA was detectable: chelator plus 0.170 g of 5% PAA in 100 g DI water, PAA test strips
Procedure: A sanitizer composition containing 0.25% SLS, 0.05% LA, 0.125% magnesium sulfate, and 85 ppm PAA was prepared in the 300 ppm total hardness water described in Example 8. This solution was applied to a stainless steel cabinet (34.5 in.×72 in.) in the meat pilot plant with a FOAM-IT® 5 unit using the driest foam setting.
This Example illustrates the effect of chelating agent on sanitizer compositions. The amount of chelator added is intended to chelate a concentration of ions corresponding to 300 ppm hard water, which corresponds to 3 millimolar. Because water will often have a hardness of less than 300 ppm, leaving an excess of chelator, it is important to evaluate the stability of PAA with respect to the chelator. The excess chelator could cause increases in pH, which would decrease the amount of PAA present according to the reaction (Preparation, Properties, Reactions and Uses of Organic Peracids and their Salts, FMC Corporation, Inorganic Chemicals Division, New York, N.Y., 1964, p. 34):
Therefore, in anticipation of the worst case where soft water is used to prepare the solution from which the foam is generated, the stability of PAA in the presence of at least 3 millimolar of chelator was evaluated.
0.125 g of Na4EDTA and 0.170 g of 5% PAA were added to 100 g of DI water.
0.161 g of Na3EDTA and 0.170 g of 5% PAA were added to 100 g of DI water.
0.233 g of Na2EDTA and 0.170 g of 5% PAA were added to 100 g of DI water.

pH of solutions = assay type: physicochemical; settings: chelator solutions in DI water in the absence of PAA, pH test paper
[2] = Turbidity of lauryl sulfate solutions in hard water (Example 8); assay type: physicochemical
Procedure: When a 0.25% MLS solution was prepared in water containing 333 ppm of calcium chloride, the solution became turbid after about 2 min.
Hard water contains both magnesium and calcium ions. For a 300 ppm total hardness (expressed as calcium carbonate), there is about 200 ppm hardness as calcium and 100 ppm hardness as magnesium (AOAC Official Methods of Analysis, 1995, Chapter 6, p. 10). […] When 0.25% solution of MLS was prepared in 300 ppm total hardness water containing calcium and magnesium ions in this ratio, the solution became turbid after about 5 minutes.

[3] = 0.25% solution in 300 ppm total hardness water containing calcium and magnesium ions
[4] = 0.25% solution in water containing 333 ppm of calcium chloride

| Molecule | stability of PAA in the presence of the chelator [1] | pH (pH of solutions) | PAA present immediately after preparation of the solution [1] | other results |
| --- | --- | --- | --- | --- |
| O=P([O-])(O)CN(CCN(CCN(CP(=O)(O)O)CP(=O)(O)O)CP(=O)(O)O)CP(=O)(O)O.[Na+] [DEQUEST 2066] | not found any chelator in salt form in which PAA is stable |  |  |  |
| CC(O)(P(=O)(O)O)P(=O)(O)O [DEQUEST® 2010, 1-hydroxyethylidene-1,1-diphosphonic acid] | stable |  |  |  |
| O=C([O-])CN(CCN(CC(=O)[O-])CC(=O)O)CC(=O)O.[Na+].[Na+] [Na2EDTA] |  | 4 | at least 50 ppm | time after which no PAA was detectable [1]: ~10 min |
| O=C([O-])CN(CCN(CC(=O)[O-])CC(=O)O)CC(=O)[O-].[Na+].[Na+].[Na+] [Na3EDTA] |  | 7.5 | at least 50 ppm | time after which no PAA was detectable [1]: ~5 min |
| O=C([O-])CN(CCN(CC(=O)[O-])CC(=O)[O-])CC(=O)[O-].[Na+].[Na+].[Na+].[Na+] [Na4EDTA] |  | 10 | no PAA present |  |
| CCCCCCCCCCCCOS(=O)(=O)[O-].[Na+] [SLS, Sodium lauryl sulfate] |  |  |  | time until solution became turbid [2, 3]: immediately became turbid; time until solution became turbid [2, 4]: instantly became turbid |
| O=C([O-])CN(CCN(CC(=O)[O-])CC(=O)[O-])CCN(CC(=O)[O-])CC(=O)[O-].[Na+].[Na+].[Na+].[Na+].[Na+] [pentasodium salt of diethylenetriaminepentaacetic acid] | not found any chelator in salt form in which PAA is stable |  |  |  |
| Magnesium lauryl sulfate [MLS] |  |  |  | time until solution became turbid [2, 3]: about 5 minutes; time until solution became turbid [2, 4]: about 2 min |
| sodium salts of diethylene triamine pentaacetic acid | rapidly decomposes |  |  |  |

From patent publication US6828294B2, “High retention sanitizer systems” (FMC Corporation, priority 2001, dated 2004)
